Experiments:
[1] = test system: TRZAW (winter wheat) Cubus; assay: Greenhouse post-emergence crop damage rating, winter wheat; details: topramezone 12 g a.i./ha, 0=no damage, 100=complete destruction
Method: (§1) The culture containers used were plastic pots containing loamy sand with approximately 3.0% of humus as substrate. The seeds of the test plants were sown separately for each species.
(§2) In all use examples, plants were grown in a greenhouse environment.
(§3) To this end, the test plants were either sown directly and grown in the same containers, or they were first grown separately as seedlings and transplanted into the test containers a few days prior to treatment.
(§4) Depending on the species, the plants were kept at 10-25° C. and 20-35° C., respectively. The test period extended over 1 to 4 weeks. During this time, the plants were tended and their response to the individual treatments was evaluated.
(§5) Topramezone was used as a commercial suspension concentrate (Clio® of BASF SE) having an active ingredient concentration of 336 g/l.
(§6) The evaluation for the damage caused by the chemical compositions was carried out using a scale from 0 to 100%, compared to the untreated control plants. Here, 0 means no damage and 100 means complete destruction of the plants.

TRZAS Taifun = assay: Greenhouse post-emergence crop damage rating, wheat TRZAS; details: topramezone 12 g a.i./ha
Method: as §1, §2, §3, §4, §5, §6

[2] = test system: HORVW (winter barley) Highlight; assay: Greenhouse post-emergence crop damage rating, winter barley; details: topramezone 12 g a.i./ha
Method: as §1, §2, §3, §4, §5, §6

GALAP (cleaver) = assay: Greenhouse post-emergence herbicidal activity against cleaver; format: in vivo; details: Galium aparine, 648 h, topramezone 12 g a.i./ha, read-out: Herbicidal activity (%) at 27 DAT Observed GALAP GS22
Description: (§7) The test period extended over 1 to 4 weeks.
(§8) 22 ff. E=X+Y−(X·Y/100) where • X=effect in percent using herbicide A at an application rate a; • Y=effect in percent using pinoxaden (herbicide B) at application rate b or a combination of pinoxaden and safener C at application rates b and c; • E=expected effect (in %) of A+B at application rates a+b or of A+B+C at application rates a+b+c.
(§9) The value E corresponds to the effect (plant damage or injury) which is to be expected if the activity of the individual compounds is just additive. If the observed effect is higher than the value E calculated according to Colby, a synergistic effect is present.

VERPE (field speedwell) = assay: Greenhouse post-emergence herbicidal activity against field speedwell; format: in vivo; details: Veronica persica, 648 h, topramezone 12 g a.i./ha, read-out: Herbicidal activity (%) at 27 DAT Observed VERPE GS22
Description: as §7, §8, §9

## Cc1c(C(=O)c2cnn(C)c2O)ccc(S(C)(=O)=O)c1C1=NOCC1 [Topramezone, [3-(4,5-dihydro-1,2-oxazol-3-yl)-4-mesyl-o-tolyl](5-hydroxy-1-methylpyrazol-4-yl)methanone]
[1]
  Herbicidal activity (%) at 27 DAT TRZAW Cubus GS12: 20%
TRZAS Taifun
  Herbicidal activity (%) at 27 DAT TRZAS Taifun GS11: 30%
[2]
  Herbicidal activity (%) at 27 DAT HORVW Highlight GS11: 20%
GALAP (cleaver)
  inhibition at 12 g/ha: 90%
VERPE (field speedwell)
  inhibition at 12 g/ha: 75%

Source: patent US8822377B2, “Herbicidal compositions comprising topramezone and pinoxaden” (BASF SE, priority 2011, dated 2014)
